Laboratory results from ChEMBL document CHEMBL3596164, “Inhibitory effects of hydroxylated cinnamoyl esters on lipid absorption and accumulation” (Bioorg Med Chem, 2015).
The source made the active and inactive calls. The rule behind the calls is not given here.

Tests used:
[1] = molecular target: T1, Pancreatic triacylglycerol lipase (Sus scrofa) (UniProt P00591); assay: Inhibition of pig pancreatic lipase at 30 uM after 10 mins by spectrophotometry relative to control
T1 sequence (whole entry): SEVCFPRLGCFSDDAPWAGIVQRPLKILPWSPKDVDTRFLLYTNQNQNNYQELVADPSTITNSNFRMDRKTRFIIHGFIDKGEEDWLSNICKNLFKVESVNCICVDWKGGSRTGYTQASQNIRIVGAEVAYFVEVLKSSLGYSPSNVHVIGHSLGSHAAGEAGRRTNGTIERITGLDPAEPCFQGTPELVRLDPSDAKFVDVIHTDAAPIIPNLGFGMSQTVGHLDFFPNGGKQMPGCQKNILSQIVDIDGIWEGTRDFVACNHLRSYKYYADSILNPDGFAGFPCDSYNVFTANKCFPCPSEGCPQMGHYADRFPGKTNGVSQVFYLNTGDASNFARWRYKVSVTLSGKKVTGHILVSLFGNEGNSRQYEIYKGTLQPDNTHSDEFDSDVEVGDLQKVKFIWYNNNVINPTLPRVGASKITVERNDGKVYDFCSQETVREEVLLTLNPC

[2] = tested on: 3T3-L1; assay: (§1) Antiobesity activity in mouse 3T3L1 cells assessed as suppression of DIM-stimulated lipid accumulation at 4 uM after 7 days by Oil Red O staining method relative to control; format: functional
[3] = molecular target: T1, Pancreatic triacylglycerol lipase (Sus scrofa); assay: Inhibition of pig pancreatic lipase after 10 mins by spectrophotometry relative to control
[4] = tested on: Mus musculus; assay: Reduction in plasma triglyceride level in corn oil-fed po dosed ddY mouse after 2 to 6 hrs relative to control; format: functional, organism-based
[5] = tested on: Mus musculus; assay: Reduction in plasma triglyceride level in corn oil-fed ddY mouse at 30 mg/kg, po after 2 to 6 hrs relative to control; format: functional; design: scale not given: the % may be the effect or the level left
[6] = tested on: Mus musculus; assay: Reduction in plasma triglyceride level in corn oil-fed ddY mouse at 150 mg/kg, po after 2 to 6 hrs relative to control; format: functional; design: scale not given: the % may be the effect or the level left
[7] = Cytotoxicity against mouse 3T3L1 cells at 1 to 4 uM after 7 days by MTT assay; format: cell-based; conditions: 3t3-l1, 168 h
[8] = as §1; format: functional; conditions: 3T3-L1, 168 h
[9] = Antiobesity activity in mouse 3T3L1 cells assessed as suppression of DIM-stimulated lipid accumulation at 25 to 50 uM after 7 days by Oil Red O staining method relative to control; format: functional, 3T3-L1

SMILES	inhibition [1]	ED50 [3]	inhibition [3]	inhibition [2]	Activity [4]	Activity [5]	Activity [6]	Activity [7]	inhibition at 4 µM [8]	inhibition (INH) [9]
O=C(/C=C/c1ccc(O)cc1)OCCCCCCc1ccccc1	inactive			inactive						
O=C(/C=C/c1ccc(O)c(O)c1)OCCc1ccccc1 [CAFFEIC ACID PHENETHYL ESTER]	62%	10 µM	Dose-dependent effect					Non-toxic	11%	24%
O=C(/C=C/c1ccc(O)cc1)OCCc1ccccc1	inactive			inactive						
CCCCCCCCCCOC(=O)/C=C/c1cc(O)c(O)c(O)c1	92%	0.9 µM	Dose-dependent effect		Dose-dependent effect	73%	57%		84%	
CC(C)=CCC/C(C)=C/COC(=O)/C=C/c1ccc(O)c(O)c1 [GERANYL CAFFEATE]	62%							Non-toxic	20%	
O=C(/C=C/c1ccc(O)c(O)c1)OCCCCCCc1ccccc1	54%	22 µM	Dose-dependent effect					Non-toxic	46%	

Now from value to compound, other results behind:

inhibition [1]	ED50 [3]	inhibition [3]	SMILES	inhibition [2]	Activity [4]	Activity [5]	Activity [6]	Activity [7]	inhibition at 4 µM [8]	inhibition (INH) [9]
38%	> 40 µM	Dose-dependent effect	CCCCCCCCCCOC(=O)/C=C/c1ccc(O)c(O)c1		Dose-dependent effect	78%	69%	Non-toxic	71%	
inactive			CCCCCCCCCCOC(=O)/C=C/c1cccc(O)c1	inactive						
inactive			CCCCCCCCCCOC(=O)/C=C/c1ccc(O)cc1	inactive						
